Assay results from ChEMBL document CHEMBL1121445, “Structure-activity analyzed by pattern recognition: the asymmetric case” (J Med Chem, 1980).
Calls of active or inactive are those of the source. The calls are words filed in the database; no cut-off is given here.

Assays:
[1] = Partition coefficient (logP); type: physicochemical; settings: octanol/water
[2] = system: Plasmodium berghei; assay: Antimalarial activity against Plasmodium berghei.; type: functional, organism-based
[3] = system: Plasmodium berghei; assay: Antimalarial activity against Plasmodium berghei; Active; type: functional, organism-based

Row | Structure (SMILES) | logP ([1]; read-out: logP) | Activity [2] | Activity [3] | logP [1]
1 | CCCCCC/N=C1/C=C(O)C(=O)c2ccc(C)nc21 | 1.5 | Not toxic | – | –
2 | CCCCCN(CCCCC)CCC/N=C1/C=C(O)C(=O)c2ccccc21 | 5.47 | – | Active | –
3 | CCCC(C)COC1=CC(=O)C(=O)c2ccccc21 (stereo unspecified) | 3.38 | Not toxic | – | –
4 | CCCCCCCCCC1=C(O)C(=O)c2sccc2C1=O | 5.06 | Not toxic | – | –
5 | O=C1C=C(NCCCCC2CCCCC2)c2ccccc2C1=O | 6.11 | – | Active | –
6 | CCCCCCCCCCCCCCCC1=C(O)C(=O)c2cccnc2C1=O | 7.5 | – | Active | –
7 | O=C1C(=O)c2cc(Cl)ccc2C(O)=C1CCCCC1CCCCC1 | 6.69 | Not toxic | – | –
8 | CCCC/N=C1\C=C(O)c2ncccc2C1=N | 1.5 | Not toxic | – | –
9 | CC(C)CCC1=CC(=O)c2ccccc2C1=O | 4 | Not toxic | – | –
10 | COc1ccc(/N=C2/C(N)=CC(=O)c3ncccc32)cc1 | 1.5 | Not toxic | – | –
11 | CCCCCCCCCCC1=C(O)C(=O)c2ccc(OC)cc2C1=O | 6.47 | Not toxic | – | –
12 | O=C1C(=O)c2ncccc2C(O)=C1CCCCCCCCC1CCCCC1 | 6.5 | – | Active | –
13 | CC(C)CCC1=C(N)C(=O)c2ccccc2C1=O | 4.37 | Not toxic | – | –
14 | CC(C)CCC1=C(Cl)C(=O)c2ccccc2C1=O | 4.64 | Not toxic | – | –
15 | CCCCCCCCCCCCCCCC/N=C1\C=C(O)c2ncccc2C1=O | 7.8 | Not toxic | – | –
16 | Cc1ccc(NC2=C(Cl)C(=O)C(=O)c3cccnc32)cc1 | 1.5 | Not toxic | – | –
17 | CCCCCOC1=CC(=O)C(=O)c2ccccc21 | 3.38 | Not toxic | – | –
18 | O=C(CCC1CCCCC1)C1=CC(=O)c2ccccc2C1=O | 4.1 | Not toxic | – | –
19 | O=C1C=C(Nc2ccc(Cl)cc2)/C(=N/c2ccc(Cl)cc2)c2cccnc21 | 5.6 | Not toxic | – | –
20 | CCOC(=O)c1ccc(/N=C2/C(Nc3ccc(C(=O)OCC)cc3)=CC(=O)c3ncccc32)cc1 | 4.5 | Not toxic | – | –
21 | CCN(CC)CCCC/N=C1/C=C(O)C(=O)c2ccccc21 | 3.79 | – | Active | –
22 | O=C1C(=O)C2=C(CCCC2)C(O)=C1CCCC1CCCCC1 | 5.93 | Not toxic | – | –
23 | NC1=CC(=O)c2ncccc2/C1=N\c1ccccc1 | 1.5 | Not toxic | – | –
24 | CCCCCCCCCCCC1=C(O)C(=O)C=C(O)C1=O [EMBELIN] | 5.04 | Not toxic | – | –

Row | Structure (SMILES) | logP ([1]; read-out: logP) | Activity [2] | Activity [3] | logP [1]
25 | CC1=C(O)C(=O)c2ccccc2C1=O | 0.2 | Not toxic | – | –
26 | NC1=CC(=O)c2ncccc2/C1=N\c1ccc(Cl)cc1 | 2.5 | Not toxic | – | –
27 | CCCCCCCCCCCCSC1=C(O)C(=O)c2cccnc2C1=O | 6.62 | – | Active | –
28 | CN(C)CCCN(C1=CC(=O)C(=O)c2ccccc21)c1ccccc1 | 3.4 | – | Active | –
29 | CCOC1=CC(=O)C(=O)c2ccccc21 | 1.2 | Not toxic | – | –
30 | CCCCCCCCCCCCCCSC1=C(O)C(=O)c2cccnc2C1=O | 8.62 | – | Active | –
31 | CC1=C(CCC(C)C)C(=O)c2ccccc2C1=O | 4.69 | Not toxic | – | –
32 | Cc1ccc(/N=C2/C(Nc3ccc(C)c(C)c3)=CC(=O)c3ncccc32)cc1C | 5.6 | Not toxic | – | –
33 | Cc1ccc(/N=C2/C(N)=CC(=O)c3ncccc32)cc1C | 2.5 | Not toxic | – | –
34 | O=C1C(O)=C(CCCCCCCCC2CCCCC2)C(=O)c2ccccc21 [MENOCTONE] | 7.81 | – | Active | –
35 | CCCCCCCCCCC1=C(O)C(=O)c2cc(OC)ccc2C1=O | 6.47 | Not toxic | – | –
36 | O=C1C(=O)c2c(ccc3ccccc23)C(O)=C1CCCC1CCCCC1 | 6.63 | Not toxic | – | –
37 | O=C1C(=O)c2cccnc2C(Nc2ccccc2)=C1Cl | 1.3 | Not toxic | – | –
38 | CC(C)CCC1=C(O)C(=O)c2ccccc2C1=O | 3.87 | – | Active | –
39 | Cc1ccc2c(c1)C(=O)C(O)=C(CCC(C)C)C2=O | 4.26 | – | Active | –
40 | CCN(CC)C1=CC(=O)C(=O)c2ccccc21 | 3.28 | – | Active | –
41 | CCCCCCCCCCCCCCCCCCSC1=C(O)C(=O)c2cccnc2C1=O | – | – | Active | 9.62
42 | CCCCCCCCCCC1=C(O)C(=O)c2ccc(Br)cc2C1=O | 7.17 | Not toxic | – | –
43 | COc1ccc(NC2=CC(=O)C(=O)c3ccccc32)cc1 | 1.9 | – | Active | –
44 | COc1ccc(/N=C2/C(Nc3ccc(OC)cc3)=CC(=O)c3ncccc32)cc1 | 4.5 | Not toxic | – | –
45 | O=C1C(=O)c2ccccc2C(O)=C1CCCC1CCCCC1 | 5.31 | – | Active | –
46 | O=C1C(=O)c2ccc(O)cc2C(O)=C1CCCC1CCCCC1 | 4.64 | Not toxic | – | –
47 | Cc1ccc2c(c1)C(=O)C(CCC(C)C)=C(O)C2=O | 4.26 | – | Active | –
48 | NC1=CC(=O)C(=O)c2cccnc21 | 1.2 | Not toxic | – | –
